Activity calls are given as the source filed them. The rule behind the calls is not given here.

As usually defined, the IC50 is the point on the concentration scale where inhibition reaches its midpoint.

In one experiment the target is T1, Histone deacetylase 7 (Homo sapiens, UniProt Q8WUI4).
T1 sequence (Q8WUI4 whole entry): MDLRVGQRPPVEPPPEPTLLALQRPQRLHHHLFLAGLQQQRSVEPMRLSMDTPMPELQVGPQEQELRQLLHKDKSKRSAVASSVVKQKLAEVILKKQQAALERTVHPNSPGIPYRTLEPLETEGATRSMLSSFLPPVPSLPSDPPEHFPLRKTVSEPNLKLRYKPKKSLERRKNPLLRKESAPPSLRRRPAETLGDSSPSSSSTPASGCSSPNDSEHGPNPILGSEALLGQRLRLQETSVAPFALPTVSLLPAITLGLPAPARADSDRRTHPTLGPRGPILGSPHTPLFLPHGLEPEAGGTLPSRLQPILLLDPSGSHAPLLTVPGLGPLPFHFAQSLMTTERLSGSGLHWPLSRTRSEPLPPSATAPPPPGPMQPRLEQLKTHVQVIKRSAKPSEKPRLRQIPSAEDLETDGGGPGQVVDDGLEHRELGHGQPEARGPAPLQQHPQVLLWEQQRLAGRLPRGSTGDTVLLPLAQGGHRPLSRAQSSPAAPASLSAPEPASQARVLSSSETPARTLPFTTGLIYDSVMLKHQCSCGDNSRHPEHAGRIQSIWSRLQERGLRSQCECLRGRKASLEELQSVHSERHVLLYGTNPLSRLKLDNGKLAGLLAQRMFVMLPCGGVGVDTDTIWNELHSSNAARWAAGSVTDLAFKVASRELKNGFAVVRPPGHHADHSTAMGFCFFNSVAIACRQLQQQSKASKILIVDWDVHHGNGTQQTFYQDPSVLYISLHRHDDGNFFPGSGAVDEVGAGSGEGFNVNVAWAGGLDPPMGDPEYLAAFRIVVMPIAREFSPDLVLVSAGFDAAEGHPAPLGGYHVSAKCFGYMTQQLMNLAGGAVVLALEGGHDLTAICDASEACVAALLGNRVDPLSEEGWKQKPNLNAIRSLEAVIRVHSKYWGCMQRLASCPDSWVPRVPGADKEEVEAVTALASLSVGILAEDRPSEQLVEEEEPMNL
The experiment can be described thus: Inhibition of human recombinant HDAC7 pre-incubated with compounds for 10 mins measured followed by 60 mins of substrate addition.

Another experiment concerns HCT-116. The experiment can be described thus: Antiproliferative activity against human HCT-116 cells measured after 48 hrs incubation by MTT assay relative to control. The experiment is classed as functional, cell-based. To be noted: HCT-116, 48 h. In general terms: Tetrazolium dyes change colour on reduction, which living cells bring about.
In experiment [1] the test system is MC-38. The experiment can be described thus: Induction of apoptosis in mouse MC38 cells assessed as viable cells at 2 uM measured after 48 hrs by FITC/PI staining based flow cytometry (reference value: 82.07%). To be noted: read-out: Activity. The experiment is classed as functional. (Flow cytometry measures light scatter and fluorescence of single cells or particles in a stream.)

Experiment [2] relates to MC-38. The experiment can be described thus: Induction of apoptosis in mouse MC38 cells assessed as viable cells at 4 uM measured after 48 hrs by FITC/PI staining based flow cytometry (reference value: 82.07%). Type of experiment: functional. The conditions noted are these: read-out: Activity.
Experiment [3] concerns MC-38. The experiment can be described thus: Increase in acetylated H3 in mouse MC38 cells at 0.1 to 2 uM measured after 24 hrs incubation by Western blot analysis. The conditions noted are these: dose 0.1-2 µM. The experiment is classed as functional, cell-based.
In experiment [4] the test system is MC-38. The experiment can be described thus: Induction of apoptosis in mouse MC38 cells assessed as necrotic cells at 1 uM measured after 48 hrs by FITC/PI staining based flow cytometry (reference value: 0.56%). The experiment is classed as functional.
Experiment [5] concerns MC-38. The experiment can be described thus: Effect on acetylated SMC3 in mouse MC38 cells at 0.1 to 2 uM measured after 24 hrs incubation by Western blot analysis. Type of experiment: functional, cell-based. To be noted: dose 0.1-2 µM. (Immunoblotting shows a protein as a band on a membrane.)
Experiment [6] deals with MC-38. The experiment can be described thus: Induction of apoptosis in mouse MC38 cells assessed as necrotic cells at 2 uM measured after 48 hrs by FITC/PI staining based flow cytometry (reference value: 0.56%). Type of experiment: functional.
A further experiment has as its system B16-F10 (Mus musculus). The experiment can be described thus: Antiproliferative activity against mouse B16-F10 cells measured after 48 hrs incubation by MTT assay relative to control. The conditions noted are these: B16-F10, 48 h.
Experiment [7] can be described thus: Antiproliferative activity against […] cells measured after 48 hrs incubation by MTT assay relative to control. The experiment is classed as functional, cell-based. The conditions noted are these: Mus musculus, Lung cancer cell line.
For experiment [8], the system named is MC-38. The experiment can be described thus: Induction of apoptosis in mouse MC38 cells assessed as viable cells at 1 uM measured after 48 hrs by FITC/PI staining based flow cytometry (reference value: 82.07%). The experiment is classed as functional. To be noted: read-out: Activity.
Experiment [9] has as its system MC-38. The experiment can be described thus: Effect on acetylated alpha-tubulin in mouse MC38 cells at 0.1 to 2 uM measured after 24 hrs incubation by Western blot analysis. Type of experiment: functional, cell-based. To be noted: dose 0.1-2 µM.
Experiment [10] relates to MC-38. The experiment can be described thus: Induction of apoptosis in mouse MC38 cells assessed as early apoptotic cells at 1 uM measured after 48 hrs by FITC/PI staining based flow cytometry (Rvb =12.27%). The experiment is classed as functional.
Experiment [11] concerns MC-38. The experiment can be described thus: Cell cycle arrest in mouse MC38 cells assessed as decrease in accumulation of cells at G0/G1 phase measured after 48 hrs by flow cytometry. The experiment is classed as functional, cell-based. To be noted: dose 1-8 µM.
The target in the next experiment is T2, Histone deacetylase 8 (Homo sapiens, UniProt Q9BY41).
T2 sequence (Q9BY41 whole entry): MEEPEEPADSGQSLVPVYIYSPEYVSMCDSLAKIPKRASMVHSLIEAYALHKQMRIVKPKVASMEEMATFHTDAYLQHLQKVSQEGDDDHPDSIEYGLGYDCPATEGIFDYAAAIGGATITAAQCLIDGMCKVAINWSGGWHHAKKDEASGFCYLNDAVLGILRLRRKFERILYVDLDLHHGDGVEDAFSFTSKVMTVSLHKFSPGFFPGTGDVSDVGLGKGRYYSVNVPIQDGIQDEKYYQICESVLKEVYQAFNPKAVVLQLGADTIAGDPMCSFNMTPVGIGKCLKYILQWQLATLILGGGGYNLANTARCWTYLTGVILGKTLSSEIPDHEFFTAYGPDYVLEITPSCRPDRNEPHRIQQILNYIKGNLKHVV
The experiment can be described thus: Inhibition of human recombinant HDAC8 pre-incubated with compounds for 10 mins measured followed by 60 mins of substrate addition.

Experiment [12] concerns MC-38. The experiment can be described thus: Cell cycle arrest in mouse MC38 cells assessed as increase in accumulation of cells at G2/M phase measured after 48 hrs by flow cytometry. The conditions noted are these: dose 1-8 µM. Type of experiment: functional, cell-based.
For experiment [13], the system named is MC-38. The experiment can be described thus: Induction of apoptosis in mouse MC38 cells assessed as necrotic cells at 8 uM measured after 48 hrs by FITC/PI staining based flow cytometry (reference value: 0.56%). The experiment is classed as functional.
The test system of a further experiment is MCF7. The experiment can be described thus: Antiproliferative activity against human MCF7 cells measured after 48 hrs incubation by MTT assay relative to control. Type of experiment: functional, cell-based. To be noted: MCF7, 48 h.
Experiment [14] deals with MC-38. The experiment can be described thus: Induction of apoptosis in mouse MC38 cells assessed as necrotic cells at 4 uM measured after 48 hrs by FITC/PI staining based flow cytometry (reference value: 0.56%). The experiment is classed as functional.
Experiment [15] relates to MC-38. The experiment can be described thus: Induction of apoptosis in mouse MC38 cells assessed as late apoptotic cells at 2 uM measured after 48 hrs by FITC/PI staining based flow cytometry (reference value: 5.07%). The experiment is classed as functional.

Turning to `CCCNNC(=O)c1ccc(CNC(=O)c2cnc(-c3cccc4ccccc34)[nH]2)cc1`, the IC50 is above 10000 nM at Histone deacetylase 7; 230 nM in the experiment with HCT-116; 2470 nM with B16-F10 (Mus musculus); 930 nM in experiment [7]; above 10000 nM on Histone deacetylase 8; 2160 nM in the experiment with MCF7. In the experiment with MC-38 [1], the viability at 2 µM was found to be 31.3%. In the experiment with MC-38 [2], the viability at 4 µM came out at 28.3%. The outcome with MC-38 [3] and in the experiment on MC-38 [12] was Active. In addition, the Activity in the experiment with MC-38 [4] was 2.9%; with MC-38 [6], 9.01%; in the experiment on MC-38 [10], 15.8%; in the experiment with MC-38 [11], “Dose-dependent-effect”; with MC-38 [13], 8.29%; in the experiment with MC-38 [14] it was 0.92%. Further, the Activity in the experiment with MC-38 [15] was determined as 41.1%. The result with MC-38 [5] and in the experiment with MC-38 [9] was inactive. Also, in the experiment with MC-38 [8], the viability at 1 µM turned out to be 50.7%.

In the case of `CCCNNC(=O)c1ccc(CNC(=O)c2cnc(-c3ccc4occc4c3)[nH]2)cc1`, the 50% inhibitory concentration (IC50) is above 10000 nM at Histone deacetylase 7; 100 nM with HCT-116; 2690 nM in the experiment on B16-F10 (Mus musculus); 1030 nM in experiment [7]; above 10000 nM on Histone deacetylase 8; 1900 nM in the experiment on MCF7. Moreover, the viability at 2 µM in the experiment with MC-38 [1] was 37.9%. Moreover, the viability at 4 µM with MC-38 [2] stood at 18.2%. The result with MC-38 [3] and in the experiment on MC-38 [12] was Active. Besides, the Activity with MC-38 [4] is 3.72%; in the experiment on MC-38 [6] it was 2.15%; in the experiment on MC-38 [10], 11.97%; in the experiment on MC-38 [11], “Dose-dependent-effect”; in the experiment on MC-38 [13], 2.85%; in the experiment with MC-38 [14], 2.1%. Moreover, in the experiment on MC-38 [15], the Activity is 28.73%. In addition, the outcome with MC-38 [5] and in the experiment with MC-38 [9] was inactive. Further, in the experiment with MC-38 [8], the viability at 1 µM came out at 49.3%.

(Values after ChEMBL document CHEMBL6121046, “Discovery of Novel Hydrazide-Based HDAC3 Inhibitors as Epigenetic Immunomodulators for Cancer Immunotherapy” (J Med Chem, 2025).)
